Assay results: publication PMC10051705, “Leishmanicidal Activity of Guanidine Derivatives against Leishmania infantum” (Tropical Medicine and Infectious Disease, 2023)
Marks after values point to notes of the source that are not given here.

Experiments:
[1] = test system: peripheral blood mononuclear cells (PBMCs); assay: in vitro cytotoxicity in PBMC (MTT); assay type: cell-based, human; conditions: CC50 PBMC / EC50 axenic amastigotes
Experimental: (§1) In vitro cytotoxicity was evaluated using peripheral blood mononuclear cells (PBMCs) collected from three healthy volunteers (2 males, mean age 33; and 1 person). PBMCs were separated by density gradient using Ficoll Paque PLUS (GE Healthcare, USA), pelleted by centrifugation (400× g for 40 min), and resuspended in RPMI 1640 medium, then supplemented with 10% fetal bovine serum and 1% antibiotic solution (penicillin 5000 Units/mL + streptomycin 5000 μg/mL). After 24 h of treatment, cell viability was evaluated by the modified colorimetric method based on the tetrazolium dye MTT (3-(4,5-dimethylthiazol-2-yl)-2,5- diphenyltetrazolium bromide). The MTT assay was used for in vitro cytotoxicity as previously described with the following modifications: cells were exposed to serially diluted concentrations of LQOFG-2, LQOFG-6, LQOFG-7 (1000 to 7.8 µM), and AmB (100 to 0.78 µM). The plates were kept at 37 °C for 24 h. MTT (5 mg/mL) was added and incubated for 4 h at 37 °C, after which the plates were centrifuged, the supernatant was discarded, and DMSO was added, leaving the plates under stirring to solubilize the formazan salts. Absorbance was measured at 540 nm using a plate reader (ELx800; Curitiba, PR, Brazil). The mean percentage of viable cells was calculated relative to the untreated control.

[2] = in vitro cytotoxicity in PBMC (MTT); assay type: cell-based, human; conditions: both sexes, human, peripheral blood mononuclear cells (PBMCs), human PBMC, 24 h, MTT
Experimental: as §1

[3] = test system: L. infantum promastigotes; assay: promastigote growth inhibition assay (MTT); assay type: cell-based; conditions: Leishmania infantum, 72 h, 26 °C
Experimental: The promastigote forms of Leishmania (Leishmania) infantum [IOC/L0579(MHOM/BR/1974/PP75)] were cultured in Schneider’s medium, pH 7.0, supplemented with 20% heat-inactivated fetal bovine serum (FBS), 2% male human urine, 100 U/mL of penicillin, and 100 mg/L of streptomycin, and the parasites were maintained at 26 °C. The procedure to obtain the extracellular axenic amastigote form of L. infantum was based on methods previously described that were modified using a Schneider medium readjusted to pH 5.5 at 37 °C. The culture of promastigote forms in the stationary phase was centrifuged, and the medium of these cells was replaced and differentiated into axenic amastigotes by temperature and medium pH changes. Parasites were maintained in culture for no more than 20 passages.
The promastigote growth inhibition assay was performed as previously described. Promastigotes were harvested during the exponential growth phase. They were incubated in the presence and absence of several concentrations of LQOFG-2, LQOFG-6, LQOFG-7 (500 to 7.8 µM), and AmB (10 to 0.078 µM) as the positive control. The plate was incubated at 26 °C for 72 h in a biological oxygen demand (B.O.D.) incubator using a Schneider’s medium (Schneider’s Insect Medium 24.5 g/L; L-glutamine 1.8 g/L; glucose 2 g/L and sodium bicarbonate 0.4 g/L; Sigma-Aldrich—St. Louis—USA) supplemented. The growth inhibition was evaluated using an MTT assay kit (Amresco, Solon, OH, USA) according to the manufacturer’s protocol. After 4 h of incubation, 10% sodium dodecyl sulfate was added to dissolve the formazan crystals. The absorbance (540 nm) was measured using a plate reader (Biosystems model ELx800; Curitiba, PR, Brazil). […] Three independent experiments we performed in triplicate.

[4] = test system: L. infantum axenic amastigotes; assay: axenic amastigote inhibition assay (MTT); assay type: cell-based; conditions: Leishmania infantum, 24 h; for EC50: 37 °C, pH 5.5, MTT; for inhibition at 31.2 µM: read-out: inhibition of axenic amastigotes compared to the control (untreated)
[5] = test system: L. infantum axenic amastigotes; assay: apoptosis/necrosis profiling, annexin V/PI staining, axenic amastigotes; assay type: cell-based, Leishmania infantum
Experimental: (§2) To evaluate both apoptosis and necrosis, promastigote forms of L. infantum in the log phase of growth were incubated at several concentrations based on the IC50 values of LQOFG-2 (6.35; 12.7, 25.4, and 50.8 µM) LQOFG-6 (12.2, 24.4, 48.8 and 97.6 µM), and LQOFG-7 (11.65, 23.3, 46.6 and 93.2 µM), and AmB (1.5 and 6 µM) was used as the positive control. The plates were incubated for 24 h at 26 °C ± 1 °C in a B.O.D. incubator. After incubation, the promastigotes were washed three times in cold PBS, resuspended in binding buffer (10-mM HEPES, 140-mM NaCl, and 2.5-mM CaCl2, pH 7.4), and stained using a FITC Annexin V/Dead Cell Apoptosis Kit (BD Biosciences, San Jose, CA, USA) according to the manufacturer’s instructions. The stained cells were diluted and suspended in an Annexin V binding buffer (BD Biosciences, San Jose, CA, USA). Annexin V-FITC/propidium iodide (PI)-stained cells were analyzed using a BD FACSCanto II flow cytometer (BD Biosciences, San Jose, CA, USA). The raw data were analyzed using FlowJo 10.0.7 software (TreeStar Inc., Ashland, OR, USA).
To evaluate both apoptosis and necrosis of the amastigote-like forms of L. infantum, the protocol was followed. In each well, amastigotes were treated with the guanidine compounds and controls.

[6] = test system: human red blood cells; assay: red blood cell lysis assay; assay type: cell-based; conditions: 1 h, 37 °C
Experimental: The hemolytic activities of guanidine compounds were measured using human red blood cells from healthy adults (n = 3) according to methods previously described. Briefly, 80 µL of a 5% erythrocyte/phosphate-buffered saline (PBS) suspension was mixed with 20 µL of LQOFG-2, LQOFG-6, LQOFG-7, (1000 to 7.8 µM), and AmB (100 to 0.78 µM). After incubation at 37 °C for 1 h, 200 µL of PBS (1.5 mM KH2PO4, 8.1 mM Na2HPO4, 136.9 mM NaCl, and 2.6 mM KCl, pH 7.2) was added to stop the hemolysis process, and the samples were centrifuged for 10 min at 1000× g. The supernatants were collected, and the extent of hemolysis was measured spectrophotometrically at 540 nm. The hemolysis percentage was determined as [(Abssam − Abscon)/(Abstot − Abscon) × 100], where Abssam is the absorbance of the sample, Abscon is the absorbance of the blank control (without drugs), and Abstot is the absorbance of total hemolysis (replacing the sample solution with an equal volume of ultrapure water (Direct-Q UV®, Guyancourt, France)).

[7] = test system: L. infantum promastigotes; assay: apoptosis/necrosis profiling, annexin V/PI staining, promastigotes; assay type: cell-based, Leishmania infantum
Experimental: as §2

SMILES	SI (CC50/EC50) [1]	CC50 at 24 h [2]	IC50 [3]	EC50 [4]	inhibition at 31.2 µM [4]	% cells, Early Apoptosis (AV+, PI−) ([5]; 0.5 × EC50, 24 h)	% cells, Late Apoptosis (AV+, PI+) ([5]; 0.5 × EC50, 24 h)	% cells, Early Apoptosis (AV+, PI−) ([5]; 1 × EC50, 24 h)	% cells, Late Apoptosis (AV+, PI+) ([5]; 1 × EC50, 24 h)	% cells, Necrosis (AV−, PI+) ([5]; 1 × EC50, 24 h)	% cells, Early Apoptosis (AV+, PI−) ([5]; 2 × EC50, 24 h)	% cells, Late Apoptosis (AV+, PI+) ([5]; 2 × EC50, 24 h)	% cells, Necrosis (AV−, PI+) ([5]; 2 × EC50, 24 h)	% cells, Early Apoptosis (AV+, PI−) ([5]; 4 × EC50, 24 h)	% cells, Late Apoptosis (AV+, PI+) ([5]; 4 × EC50, 24 h)	% cells, Necrosis (AV−, PI+) ([5]; 4 × EC50, 24 h)	HC50, toxicity to red blood cells [6]	% cells, Early Apoptosis (AV+, PI−) ([7]; 0.5× IC50, 24 h)	% cells, Late Apoptosis (AV+, PI+) ([7]; 0.5× IC50, 24 h)	% cells, Necrosis (AV−, PI+) ([7]; 0.5× IC50, 24 h)	further results
O=C(/N=C(/NCc1ccccc1)Nc1ccc(Br)cc1)c1ccccc1 [LQOFG-2, (Z)-N-((benzylamine)((4-bromophenyl)amino)methylene)benzamide]	12.00	313 ± 3.23 µM	12.7 ± 0.25 µM	26.1 ± 1.22 µM	57.7%	5.68 ± 0.29 ^a %	31.43 ± 0.03 ^b %	8.13 ± 0.84 ^d %	33.23 ± 0.73 ^c %	11.97 ± 0.66%	7.68 ± 0.39 ^d %	56.27 ± 1.51 ^d %	15.93 ± 1.02%	7.55 ± 1.18 ^d %	67.50 ± 2.05 ^d %	13.80 ± 1.47%	>1000 µM	0.27± 0.09%	0.55 ± 0.04%	1.69 ± 0.28%	% cells, Necrosis (AV−, PI+) ([5]; 0.5 × EC50, 24 h): 13.20 ± 1.62%; % cells, Early Apoptosis (AV+, PI−) ([7]; 1× IC50, 24 h): 0.12 ± 0.02%; % cells, Late Apoptosis (AV+, PI+) ([7]; 1× IC50, 24 h): 0.41 ± 0.14%; % cells, Necrosis (AV−, PI+) ([7]; 1× IC50, 24 h): 2.07 ± 0.23%; % cells, Early Apoptosis (AV+, PI−) ([7]; 2× IC50, 24 h): 0.35 ± 0.01%; % cells, Late Apoptosis (AV+, PI+) ([7]; 2× IC50, 24 h): 0.78 ± 0.15%; % cells, Necrosis (AV−, PI+) ([7]; 2× IC50, 24 h): 1.52 ± 0.24%; % cells, Early Apoptosis (AV+, PI−) ([7]; 4× IC50, 24 h): 0.34 ± 0.09%; % cells, Late Apoptosis (AV+, PI+) ([7]; 4× IC50, 24 h): 0.63 ± 0.12%; % cells, Necrosis (AV−, PI+) ([7]; 4× IC50, 24 h): 1.79 ± 0.59%
CC(C)(C)c1ccc(N/C(=N\C(=O)c2ccccc2)NCc2ccccc2)cc1 [LQOFG-6, (Z)-N-((benzylamine)((4-(tert-butyl)phenyl)amino)methylene)benzamide]	>47.4	> 1000 µM	24.4 ± 0.76 µM	21.1 ± 1.13 µM	59.9%	3.62 ± 0.39%	17.10 ± 0.80%	4.05 ± 0.22%	20.00 ± 1.74%	6.57 ± 1.20%	5.72 ± 0.20 ^a %	25.50 ± 0.80%	7.15 ± 0.21%	9.06 ± 0.70 ^d %	45.47 ± 1.30 ^d %	8.14 ± 0.78%	>1000 µM	0.65 ± 0.19%	0.18 ± 0.01%	0.85 ± 0.09%	% cells, Early Apoptosis (AV+, PI−) ([7]; 1× IC50, 24 h): 0.46 ± 0.13%; % cells, Late Apoptosis (AV+, PI+) ([7]; 1× IC50, 24 h): 0.20 ± 0.03%; % cells, Necrosis (AV−, PI+) ([7]; 1× IC50, 24 h): 1.47 ± 0.21%; % cells, Early Apoptosis (AV+, PI−) ([7]; 2× IC50, 24 h): 0.51 ± 0.08%; % cells, Late Apoptosis (AV+, PI+) ([7]; 2× IC50, 24 h): 0.32 ± 0.06%; % cells, Early Apoptosis (AV+, PI−) ([7]; 4× IC50, 24 h): 0.91 ± 0.34%; % cells, Late Apoptosis (AV+, PI+) ([7]; 4× IC50, 24 h): 0.20 ± 0.03%
